Experimental data taken from patent publication US20030220386A1, “Delta 1-pyrrolines for use as pesticides” (priority 2000, published 2003).
Where two headings read alike, the source gives them in different places.

How the values were obtained:
[1] = logP determination by HPLC (reversed-phase C 18), EEC Directive 79/831 Annex V.A8; type: physicochemical; details: 43° C.
Experimental: The logP values given in the tables and preparation examples above are determined in accordance with EEC Directive 79/831 Annex V.A8 by HPLC (High Performance Liquid Chromatography) using a reversed-phase column (C 18). Temperature: 43° C.
In the acidic range, the determination is carried out at pH 2.3 using the mobile phases 0.1% aqueous phosphoric acid and acetonitrile; linear gradient from 10% acetonitrile to 90% acetonitrile.
In the neutral range, the determination is carried out at pH 7.5 using the mobile phases 0.01 molar aqueous phosphate buffer solution and acetonitrile; linear gradient from 10% acetonitrile to 90% acetonitrile.
Calibration is carried out using unbranched alkan-2-ones (of 3 to 16 carbon atoms) with known logP values (determination of the logP values by the retention times using linear interpolation between two successive alkanones).

[2] = tested on: cotton aphid (Aphis gossypii); assay: Aphis gossypii test; type: in vivo; details: 200 ppm, cotton leaves dipped
[3] = tested on: Amblyomma hebraeum nymphs; assay: Test with polyphagous tick nymphs, dip treatment; type: in vivo; details: nymphs immersed for 1 minute; after 4 weeks
Experimental: (§1) 20 mg of active compound are dissolved in one ml of dimethyl sulphoxide. To prepare a suitable formulation, the solution of active compound is diluted with water to the concentration desired in each case.
10 nymphs which have sucked themselves full are immersed for 1 minute into the preparation of active compound to be tested. The animals are transferred to Petri dishes (Ø 9.5 cm) fitted with filter discs and covered. After 4 weeks of storage in a climatized room, the mortality is determined.
100% means that none of the animals has undergone normal ecdysis. 0% means that all animals have undergone ecdysis.

[4] = tested on: greenhouse red spider mite (Tetranychus urticae); assay: Tetranychus test (OP-resistant/dip treatment); type: in vivo; details: 100 ppm, bean plants dipped
Experimental: After the desired period of time, the activity in % is determined.

[5] = tested on: larvae of the mustard beetle (Phaedon cochleariae); assay: Phaedon larvae test; details: 1000 ppm, cabbage leaves dipped
[6] = tested on: peach aphid (Myzus persicae); assay: Myzus test; type: in vivo; details: cabbage leaves dipped
[7] = tested on: Lucilia cuprina larvae; assay: Blowfly larvae test/Development-inhibitory action; type: in vivo; details: 100 ppm; mortality of the larvae after 48 hours
Experimental: as §1
About 20 Lucilia cuprina larvae are introduced into a test tube which contains about 1 cm^3 of horsemeat and 0.5 ml of the preparation of active compound to be tested. The activity of the preparation of active compound is determined after 48 hours as the mortality of the larvae in %.
The test tubes are then transferred into a beaker whose bottom is covered with sand. After a further 12 days, the test tubes are removed and the pupae and flies are counted. The development-inhibitory action is stated as inhibition of hatching in % (ratio of pupae to flies that have hatched) after 1.5 times the development period of an untreated control.

[8] = tested on: larvae of the armyworm (Spodoptera frugiperda); assay: Spodoptera frugiperda test; type: in vivo; details: 1000 ppm, cabbage leaves dipped
[9] = tested on: caterpillars of the diamondback moth (Plutella xylostella); assay: Plutella test; type: in vivo; details: cabbage leaves dipped
[10] = tested on: Heliothis virescens caterpillars; assay: Heliothis virescens test; type: in vivo; details: soya bean shoots dipped
[11] = tested on: Meloidogyne incognita; assay: Meloidogyne test; type: in vivo; details: 20 ppm, nematicidal action by formation of galls on lettuce roots
Experimental: Vessels are filled with sand, solution of active compound, Meloidogyne incognita egg/larvae suspension and lettuce seeds. The lettuce seeds germinate and the plants develop. On the roots, galls are formed.
After the desired period of time, the nematicidal action is determined in % by the formation of galls. 100% means that no galls were found; 0% means that the number of galls on the treated plants corresponds to that of the untreated control.

[12] = tested on: larvae of the armyworm (Spodoptera exigua); assay: Spodoptera exigua test; type: in vivo; details: 1000 ppm, cabbage leaves dipped
[13] = reversed-phase C18 HPLC column, pH 2.3, 0.1% aqueous phosphoric acid/acetonitrile, read-out: log P (pH 2.3)
[14] = pH 2.3, 0.1% aqueous phosphoric acid/acetonitrile, read-out: log P (pH 2.3)

With `CN(C)S(=O)(=O)Oc1ccc(-c2ccccc2C2CCC(=O)N2)cc1` (single isomer, unassigned; isomer 2) [“ortho” isomer, 2′-(5-oxo-2-pyrrolidinyl)-1,1′-biphenyl-4-yl dimethylsulphamate] the chromatographic logP [1, 13] was 2.28.
With `O=S(=O)(Oc1ccc(C2CCC(c3c(F)cccc3F)=N2)cc1)C(F)(F)F` (stereo not drawn) [I-1, 4-[5-(2,6-difluorophenyl)-3,4-dihydro-2H-pyrrol-2-yl]phenyl trifluoromethanesulphonate] the “Kill rate in % after 6 days” value [2] was 95%, the “activity (mortality / no normal ecdysis)” value [3] was “good activity” and the “Kill rate in % after 7 days” value [4] was 95%. For the same compound, the “Kill rate in % after 7 days” value [5] was 100%, the “Kill rate in % after 6 days” value ([6]; 20 ppm) was 95% and the chromatographic logP [1, 13] was 3.49. The “Action in % after 48 hours” value [7] was 100%.
With `O=S(=O)(Oc1ccc(-c2ccc(C3CCC(c4c(F)cccc4F)=N3)cc2)cc1)C(F)(F)C(F)(F)C(F)(F)C(F)(F)F` (stereo not drawn) [I-3, 4′-[5-(2,6-Difluorophenyl)-3,4-dihydro-2H-pyrrol-2-yl]-1,1′-biphenyl-4-yl 1,1,2,2,3,3,4,4,4-nonafluoro-1-butanesulphonate] the “Kill rate in % after 6 days” value [8] was 100%, the “Kill rate in % after 7 days” value [4] was 98% and the “Kill rate in % after 7 days” value [5] was 100%. It also gave a chromatographic logP [1, 14] of 5.57.
With `CN(C)S(=O)(=O)Oc1ccc(-c2ccc(C3CCC(c4c(F)cccc4F)=N3)cc2)cc1` (stereo not drawn) [I-4, 4′-[5-(2,6-Difluorophenyl)-3,4-dihydro-2H-pyrrol-2-yl]-1,1′-biphenyl-4-yl dimethylsulphamate] the “Kill rate in % after 6 days” value [8] was 100%, the “Kill rate in % after 7 days” value [5] was 100% and the chromatographic logP [1, 13] was 3.06.
In the case of `O=S(=O)(Oc1ccc(-c2ccc([C@H]3CCC(c4c(F)cccc4F)=N3)cc2)cc1)C(F)(F)F` [I-5, 4′-[(2R)-5-(2,6-difluorophenyl)-3,4-dihydro-2H-pyrrol-2-yl]-1,1′-biphenyl-4-yl trifluoromethanesulphonate], the “Kill rate in % after 6 days” value ([9]; 5 ppm) is reported as 100%, the “Kill rate in % after 6 days” value [8] is reported as 100% and the “Kill rate in % after 6 days” value ([10]; 5 ppm) is reported as 100%. The “activity (mortality / no normal ecdysis)” value [3] was “good activity”, the “Kill rate in % after 14 days” value [11] was 100% and the “Kill rate in % after 7 days” value [5] was 100%. The chromatographic logP [1, 13] was 4.27 and the “Action in % after 48 hours” value [7] was 100%.
With `O=S(=O)(Oc1ccc(C2CCC(c3c(F)cccc3F)=N2)cc1)c1ccc(OC(F)(F)F)cc1` (stereo not drawn) [I-6, 4-[5-(2,6-difluorophenyl)-3,4-dihydro-2H-pyrrol-2-yl]phenyl 4-(trifluoromethoxy)benzenesulphonate] the “Kill rate in % after 7 days” value [4] was 98%, the “Kill rate in % after 7 days” value [5] was 90% and the “Kill rate in % after 6 days” value ([6]; 1000 ppm) was 95%. For the same compound, the chromatographic logP [1, 13] was 3.83 and the “Action in % after 48 hours” value [7] was 90%.
For `O=S(=O)(Oc1ccc(-c2ccc(C3CCC(c4c(F)cccc4F)=N3)cc2)cc1)C(F)(F)F` (stereo not drawn) [I-7, 4′-[5-(2,6-difluorophenyl)-3,4-dihydro-2H-pyrrol-2-yl]-1,1′-biphenyl-4-yl trifluoromethanesulphonate], the “Kill rate in % after 6 days” value ([9]; 1000 ppm) was 100%, the “Kill rate in % after 6 days” value [8] was 100% and the “Kill rate in % after 6 days” value ([10]; 1000 ppm) was 100%. For the same compound, the “activity (mortality / no normal ecdysis)” value [3] was “good activity”, the “Kill rate in % after 6 days” value [12] was 100% and the “Kill rate in % after 7 days” value [4] was 98%. The “Kill rate in % after 7 days” value [5] was 100%, the chromatographic logP [1, 13] was 4.15 and the “Action in % after 48 hours” value [7] was 100%.
`CC(C)(C)OC(=O)NC(CCC(=O)c1c(F)cccc1F)c1ccc(OS(=O)(=O)C(F)(F)F)cc1` (stereo not drawn) [II-1, 4-[1-[(tert-butoxycarbonyl)amino]-4-(2,6-difluorophenyl)-4-oxobutyl]phenyl trifluoromethanesulphonate] gave a chromatographic logP [1, 14] of 4.38.
For `CC(C)(C)OC(=O)N[C@H](CCC(=O)c1c(F)cccc1F)c1ccc(OS(=O)(=O)C(F)(F)F)cc1` [II-2, 4-[(1R)-1-[(tert-Butoxycarbonyl)amino]-4-(2,6-difluorophenyl)-4-oxobutyl]phenyl trifluoromethanesulphonate], the chromatographic logP [1, 14] was 4.37.
In the case of `CC(C)(C)OC(=O)NC(CCC(=O)c1c(F)cccc1F)c1ccc(-c2ccc(OS(=O)(=O)C(F)(F)C(F)(F)C(F)(F)C(F)(F)F)cc2)cc1` (stereo not drawn) [II-3, 4′-[1-[(tert-Butoxycarbonyl)amino]-4-(2,6-difluorophenyl)-4-oxobutyl]-1,1′-biphenyl-4-yl 1,1,2,2,3,3,4,4,4-nonafluoro-1-butanesulphonate], the chromatographic logP [1, 14] is reported as 6.05.
For `CN(C)S(=O)(=O)Oc1ccc(-c2ccc(C(CCC(=O)c3c(F)cccc3F)NC(=O)OC(C)(C)C)cc2)cc1` (stereo not drawn) [II-4, tert-Butyl 4-(2,6-difluorophenyl)-1-(4′-{[(dimethylamino)sulphonyl]oxy}-1,1′-biphenyl-4-yl)-4-oxobutylcarbamate], the chromatographic logP [1, 13] was 4.25.
Work on `CN(C)S(=O)(=O)Oc1ccc(-c2ccc(C3CCC(=O)N3)cc2)cc1` (stereo not drawn) [IX-b-1, 4′-(5-oxo-2-pyrrolidinyl)-1,1′-biphenyl-4-yl dimethylsulphamate] yielded a chromatographic logP [1, 13] of 2.23.
In the case of `O=C1CCC(c2ccc(-c3ccc(OS(=O)(=O)C(F)(F)C(F)(F)C(F)(F)C(F)(F)F)cc3)cc2)N1` (stereo not drawn) [IX-b-2, 4′-(5-Oxo-2-pyrrolidinyl)-1,1′-biphenyl-4-yl 1,1,2,2,3,3,4,4,4-nonafluoro-1-butanesulphonate], the chromatographic logP [1, 14] is reported as 4.21.
For `CC1(C)OB(c2ccc(C3CCC(c4c(F)cccc4F)=N3)cc2)OC1(C)C` (stereo not drawn) [V-1, 5-(2,6-difluorophenyl)-2-[4-(4,4,5,5-tetramethyl-1,3,2-dioxaborolan-2-yl)phenyl]-3,4-dihydro-2H-pyrrole], the chromatographic logP ([1]; reversed-phase C18 HPLC column, pH 7.5, 0.01 molar aqueous phosphate buffer/acetonitrile, read-out: log P (pH 7.5)) was 4.46.
`CC(C)(C)OC(=O)N1C(=O)CCC1c1ccc(OS(=O)(=O)C(F)(F)F)cc1` (stereo not drawn) [VII-1, tert-butyl 2-oxo-5-(4-{[(trifluoromethyl)-sulphonyl]oxy}phenyl)-1-pyrrolidinecarboxylate] showed a chromatographic logP [1, 13] of 3.31.
In the case of `CC(C)(C)OC(=O)N1C(=O)CC[C@@H]1c1ccc(OS(=O)(=O)C(F)(F)F)cc1` [VII-2, tert-butyl 2-oxo-(5R)-5-(4-{[(trifluoromethyl)sulphonyl]oxy}phenyl)-1-pyrrolidinecarboxylate], the chromatographic logP [1, 13] is reported as 3.31.
In the case of `CC(C)(C)OC(=O)N1C(=O)CCC1c1ccc(-c2ccc(OS(=O)(=O)C(F)(F)C(F)(F)C(F)(F)C(F)(F)F)cc2)cc1` (stereo not drawn) [VII-3, tert-Butyl 2-(4′-{[(1,1,2,2,3,3,4,4,4-nonafluorobutyl)sulphonyl]oxy}-1,1′-biphenyl-4-yl)-5-oxo-1-pyrrolidinecarboxylate], the chromatographic logP [1, 14] is reported as 5.44.
`CN(C)S(=O)(=O)Oc1ccc(-c2ccc(C3CCC(=O)N3C(=O)OC(C)(C)C)cc2)cc1` (stereo not drawn) [VII-4, tert-Butyl 2-(4′-{[(dimethylamino)sulphonyl]oxy}-1,1′-biphenyl-4-yl)-5-oxo-1-pyrrolidinecarboxylate] showed a chromatographic logP [1, 13] of 3.31.
`O=S(=O)(Oc1ccc(-c2ccccc2)cc1)C(F)(F)C(F)(F)C(F)(F)C(F)(F)F` [XIII-1, 1,1′-biphenyl-4-yl 1,1,2,2,3,3,4,4,4-nonafluoro-1-butanesulphonate] gave a chromatographic logP [1, 14] of 5.81.
Work on `CN(C)S(=O)(=O)Oc1ccc(-c2ccccc2)cc1` [XIII-2, 1,1′-biphenyl-4-yl dimethylsulphamate] yielded a chromatographic logP [1, 14] of 3.51 and a melting point of 105 to 107 °C.
